Measurements as given in US20150284667A1, “ALCOHOLIC BEVERAGES WITH HEALTH-BENEFITTING AND PROTECTIVE CHARACTERISTICS” (Cerebral Spirits Corporation, priority 2014, published 2015).

Legend:
[1] = system: breast cancer and liver cancer; conditions: animal studies; cited from earlier work
hepatocytes = conditions: cited from earlier work

Row | Solubility in ethanol (Solubility in ethanol) | SMILES | Antitumor activity [1] | Protection of hepatocytes against ethanol-induced cell cytotoxicity (hepatocytes)
1 | – | COc1cc(/C=C/C(=O)O)ccc1O [Ferulic acid, ferulic acid] | direct antitumor activity | –
2 | ethanol soluble | CCNC(=O)CC[C@H](N)C(=O)O [L-theanine, gamma-glutamylethylamide] | – | significantly protect hepatocytes
3 | ethanol soluble | Oc1ccc(C=Cc2cc(O)cc(O)c2)cc1 [Resveratrol, resveratrol] | – | –
